Like-named read-outs stand apart in the source and are kept apart here. Values belong to the compound of their own block, whether it stands above or below them.
Tests used:
MiaPaCa-2 cells [1] = assay: Cell proliferation (cell confluence), IncuCyte Live-Cell Analysis System; type: cell-based, human; settings: for IC50: Homo sapiens; for Inhibition of cell proliferation in combination with Mito-PEG5-ATO (combination index): combined with Mito-PEG5-ATO; for % changes of IC50 with vs without Mito-PEG5-ATO: heat map Fig. 7d
Procedure: The following cell lines were obtained from the American Type Culture Collection (Manassas, VA), where they were regularly authenticated: MiaPaCa-2 (ATCC Cat# CRL-1420, human pancreatic cancer cells), U87MG (ATCC Cat# HTB-14, human brain cancer cells), A549 (ATCC Cat# CCL-185, lung cancer cells), and HCT-116 (ATCC Cat# CCL-247, colon cancer cells). All cell lines were grown at 37 °C in 5% carbon dioxide. MiaPaCa-2 cells were maintained in Dulbecco's Modified Eagle Medium (Thermo Fisher Scientific, Waltham, MA; Cat# 11965) supplemented with 10% fetal bovine serum. U87MG, A549, and HCT-116 cells were maintained in RPMI 1640 medium (Thermo Fisher Scientific, Cat# 11875), supplemented with 10% fetal bovine serum. All cells were stored in liquid nitrogen and used within 20 passages after thawing.
The IncuCyte Live-Cell Analysis System was used to monitor cell proliferation[3],[33],[67]. As shown in previous publications[3],[67], this imaging system is probe-free and noninvasive, and enables continuous monitoring of cell confluence over several days. The increase in the percentage of cell confluence was used as a surrogate marker of cell proliferation. In a 96-well plate, cells were plated at 1,000 cells per well in triplicates and left to adhere overnight. Cells were then treated with Mito-PEG-ATO analogs, and the cell confluency was recorded over several days in the IncuCyte Live-Cell Analysis System.

[2] = system: mitochondrial respiration (OCR) in intact MiaPaCa-2 cells; assay: Intact cell mitochondrial respiration (basal OCR), Seahorse XF-96; type: cell-based, human
Procedure: (§1) Mitochondrial oxygen consumption was measured using the Seahorse XF-96 Extracellular Flux Analyzer (Agilent, North Billerica, MA)[3],[33],[67],[68]. To determine the intact cell mitochondrial function of MiaPaCa-2 cells in response to Mito-PEG-ATO analogs, we used the bioenergetic function assay previously described[2],[3]. […] From these measurements, indices of mitochondrial function were determined as previously described[2],[3]. For mitochondrial complex activities assays, after cells were treated with Mito-PEG-ATO analogs for 24 h, the OCR-based assessment of mitochondrial complex activities was carried out on acutely permeabilized cells in the presence of different mitochondrial substrates, i.e., pyruvate/malate for complex I and duroquinol for complex III[3],[32],[34],[69]. Rotenone, malonate, and antimycin A (Sigma-Aldrich, St. Louis, MO) were used as specific inhibitors of mitochondrial complexes I, II, and III, respectively. Briefly, cells that were intact after treatments were immediately permeabilized using the Seahorse XF Plasma Membrane Permeabilizer (Agilent). The mitochondrial complex I-induced OCR was assayed in mannitol and sucrose buffer[69] containing 10 mM pyruvate and 1.5 mM malate (substrates for complex I) and 10 mM malonate (which inhibits complex II activities). The mitochondrial complex III-driven OCR was assayed in a mannitol and sucrose buffer containing 0.5 mM duroquinol (substrate for complex III) as well as 1 µM rotenone and 10 mM malonate (which inhibit both complex I and II activities). The IC50 values were determined as previously reported.

[3] = target: mitochondrial complex III (MiaPaCa-2 cells) (Homo sapiens, UniProt P00156); assay: Complex III-dependent oxygen consumption in permeabilized cells, Seahorse XF-96; type: cell-based
Procedure: as §1

MiaPaCa-2 cells [4] = assay: Intracellular oxidants: HPLC of hydroethidine (HE) oxidation products; type: cell-based, human; settings: 24 h, with Mito-PEG5-ATO 0.05 µM, AZD-3965 200 µM or CPI-613 200 µM
Procedure: Hydroethidine (HE) or dihydroethidium was used as a fluorogenic probe to assess the cellular generation of superoxide and other peroxidatic oxidants[36],[37]. Cells were treated for 24 h with Mito-PEG5-ATO alone or in combination with AZD-3965 or CPI-613, followed by 1 h incubation with HE (10 µM). Cells were harvested and the cell pellet stored at − 80 °C until the day of high-performance liquid chromatography (HPLC) analysis. Sample preparation and HPLC analysis were performed as previously reported[32],[36]. 2-OH-E^+ was used as a specific marker for superoxide, and E^+-E^+ was used as a specific marker for intracellular one-electron oxidants[36],[37].
HE was purchased from Invitrogen (Carlsbad, CA). Stock solutions (20 mM and 5 mM, respectively) were prepared in deoxygenated DMSO (dimethyl sulfoxide) and stored at − 80 °C until use. Ethidium cation (bromide salt) was purchased from Sigma-Aldrich. The hydroxylated oxidation products from HE (2-OH-E^+) were prepared by reacting the probes with Fremy’s salt as previously described in detail[70],[71]. The dimeric products were prepared by reacting the probes with excess potassium ferricyanide, as detailed elsewhere. Synthesized standards of all oxidation products of HE were purified by HPLC. HPLC-based measurements of HE and its oxidation products were performed using an Agilent 1100 system equipped with absorption and fluorescence detectors and refrigerated autosampler (4 °C). The samples (50 µL) were injected into a reverse phase column (Phenomenex, Kinetex C18, 100 mm × 4.6 mm, 2.6 µm) equilibrated with 20% acetonitrile and 80% water containing 0.1% trifluoroacetic acid. The compounds were eluted by increasing the content of acetonitrile from 20 to 56% over 4.5 min at a flow rate of 1.5 mL/min. The absorption detector was used to measure 3,8-diamino-6-phenylphenanthridine (at 290 nm; retention time: 2.5 min), HE-E^+ (at 290 nm; retention time: 4.1 min), E^+-E^+ (at 290 nm; retention time: 4.3 min), and HE (at 370 nm; retention time: 1.6 min). A fluorescence detector (initial excitation at 358 nm and emission at 440 nm) was used to monitor HE (when present at low concentrations). At 2.3 min after injection, the fluorescence parameters were changed (excitation at 490 nm and emission at 567 nm) for sensitive detection of 2-OH-E^+ (retention time: 3.2 min) and E^+ (retention time: 3.3 min).

MiaPaCa-2 cells [5] = assay: Intracellular ATP, luciferase-based assay; type: cell-based, human; settings: Mito-PEG5-ATO 0 µM, 24 h
Procedure: After seeding cells overnight at 2 × 10^4 per well in 96-well plates, cells were treated for 24 h. Intracellular ATP levels were determined in cell lysates using a luciferase-based assay per the manufacturer’s instructions (cat# FLAA, Sigma Aldrich, St. Louis, MO). In brief, the assay starts by rapidly adding an ATP assay mix solution (luciferase and luciferin solution, cat# FLAAM) to cell lysates. This is swirled briskly to mix, and the amount of light produced is immediately measured with a luminometer. The results were normalized to the total protein level measured in each well, as determined by the Bradford method (Bio-Rad Laboratories, Hercules, CA).

[6] = MIA PaCa-2, MiaPaCa-2 cells, inhibitor alone, control ~90% confluence, read-out: IC50 (cell proliferation) without Mito-PEG5-ATO

Chain of mitochondrial complex III (MiaPaCa-2 cells) (P00156 whole entry): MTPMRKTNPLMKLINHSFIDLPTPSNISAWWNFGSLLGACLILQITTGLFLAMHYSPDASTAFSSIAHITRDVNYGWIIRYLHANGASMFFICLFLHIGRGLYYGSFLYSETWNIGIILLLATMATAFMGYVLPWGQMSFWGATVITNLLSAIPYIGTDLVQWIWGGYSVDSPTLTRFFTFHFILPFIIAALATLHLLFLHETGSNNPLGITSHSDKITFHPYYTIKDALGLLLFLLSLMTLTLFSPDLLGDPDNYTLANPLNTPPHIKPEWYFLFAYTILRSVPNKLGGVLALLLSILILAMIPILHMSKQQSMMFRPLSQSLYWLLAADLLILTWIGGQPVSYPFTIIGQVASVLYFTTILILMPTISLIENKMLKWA
Chain of mitochondrial complex III (MiaPaCa-2 cells) (P47985 whole entry partner): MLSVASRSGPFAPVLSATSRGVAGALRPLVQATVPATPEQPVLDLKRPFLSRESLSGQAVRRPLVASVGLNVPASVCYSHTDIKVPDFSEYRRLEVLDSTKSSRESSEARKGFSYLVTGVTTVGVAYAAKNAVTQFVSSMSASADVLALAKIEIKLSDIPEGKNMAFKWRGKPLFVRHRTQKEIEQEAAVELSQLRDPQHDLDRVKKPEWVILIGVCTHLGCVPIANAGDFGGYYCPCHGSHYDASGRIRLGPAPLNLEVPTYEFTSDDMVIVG

SMILES: O=C1C(OCCOCCOCCOCCOCCOCCOCCOCCOCC[P+](c2ccccc2)(c2ccccc2)c2ccccc2)=C([C@H]2CC[C@H](c3ccc(Cl)cc3)CC2)C(=O)c2ccccc21.[Br-] [Mito-PEG9-ATO, (26-((3-(trans-4-(4-chlorophenyl)cyclohexyl)-1,4-dioxo-1,4-dihydronaphthalen-2-yl)oxy)-3,6,9,12,15,18,21,24-octaoxahexacosyl)triphenylphosphonium bromide]
IC50 (MiaPaCa-2 cells [1]; MIA PaCa-2, read-out: IC50, inhibition of cell proliferation): 0.16 µM
Cell confluence (% of control) (MiaPaCa-2 cells [1]; MiaPaCa-2 cells, 0.01 µM, control ~90% confluence): 99.63 % of control
Cell confluence (% of control) (MiaPaCa-2 cells [1]; MiaPaCa-2 cells, 0.03 µM, control ~90% confluence): 99.03 % of control
Cell confluence (% of control) (MiaPaCa-2 cells [1]; MiaPaCa-2 cells, 0.1 µM, control ~90% confluence): 81.02 % of control
Cell confluence (% of control) (MiaPaCa-2 cells [1]; MiaPaCa-2 cells, 0.15 µM, control ~90% confluence): 60.68 % of control
Cell confluence (% of control) (MiaPaCa-2 cells [1]; MiaPaCa-2 cells, 0.2 µM, control ~90% confluence): 25.97 % of control
Cell confluence (% of control) (MiaPaCa-2 cells [1]; MiaPaCa-2 cells, 0.25 µM, control ~90% confluence): 14.32 % of control
Cell confluence (% of control) (MiaPaCa-2 cells [1]; MiaPaCa-2 cells, 0.3 µM, control ~90% confluence): 10.81 % of control
Cell confluence (% of control) (MiaPaCa-2 cells [1]; MiaPaCa-2 cells, 0.4 µM, control ~90% confluence): 7.81 % of control
Cell confluence (% of control) (MiaPaCa-2 cells [1]; MiaPaCa-2 cells, 0.5 µM, control ~90% confluence): 5.89 % of control
Cell confluence (% of control) (MiaPaCa-2 cells [1]; MiaPaCa-2 cells, 1 µM, control ~90% confluence): 4.84 % of control
Cell confluence (% of control) (MiaPaCa-2 cells [1]; MiaPaCa-2 cells, 5 µM, control ~90% confluence): 3.30 % of control
OCR (pmol/min/µg protein) ([2]; 0.01 µM, 24 h treatment, intact MiaPaCa-2 cells, baseline OCR, mean, n=4): 13.41 pmol/min/µg protein
OCR (basal, intact cell mitochondrial respiration) ([2]; 0.03 µM, 24 h treatment, intact MiaPaCa-2 cells, mean, n=4): 12.24 pmol/min/µg protein
OCR (basal, intact cell mitochondrial respiration) ([2]; 0.1 µM, 24 h treatment, intact MiaPaCa-2 cells, mean, n=4): 7.60 pmol/min/µg protein
OCR (basal, intact cell mitochondrial respiration) ([2]; 0.2 µM, 24 h treatment, intact MiaPaCa-2 cells, mean, n=4): 3.64 pmol/min/µg protein
OCR (basal, intact cell mitochondrial respiration) ([2]; 0.3 µM, 24 h treatment, intact MiaPaCa-2 cells, mean, n=4): 1.87 pmol/min/µg protein
OCR (basal, intact cell mitochondrial respiration) ([2]; 0.4 µM, 24 h treatment, intact MiaPaCa-2 cells, mean, n=4): 1.43 pmol/min/µg protein
OCR (basal, intact cell mitochondrial respiration) ([2]; 0.5 µM, 24 h treatment, intact MiaPaCa-2 cells, mean, n=4): 1.22 pmol/min/µg protein
OCR (basal, intact cell mitochondrial respiration) ([2]; 1 µM, 24 h treatment, intact MiaPaCa-2 cells, mean, n=4): 1.18 pmol/min/µg protein
OCR (basal, intact cell mitochondrial respiration) ([2]; 3 µM, 24 h treatment, intact MiaPaCa-2 cells, mean, n=4): 0.96 pmol/min/µg protein
OCR (basal, intact cell mitochondrial respiration) ([2]; 5 µM, 24 h treatment, intact MiaPaCa-2 cells, mean, n=4): 0.01 pmol/min/µg protein
IC50 ([2]; Homo sapiens, MIA PaCa-2, 24 h, read-out: IC50, inhibition of basal OCR in intact cells): 110 nM
Complex III activity (OCR, % of control) ([3]; 0.003 µM): 101.6 % of control
Complex III activity (OCR, % of control) ([3]; 0.01 µM): 95.6 % of control
Complex III activity (OCR, % of control) ([3]; 0.03 µM): 96.5 % of control
Complex III activity (OCR, % of control) ([3]; 0.05 µM): 100.1 % of control
Complex III activity (OCR, % of control) ([3]; 0.1 µM): 95.3 % of control
Complex III activity (OCR, % of control) ([3]; 0.2 µM): 93.6 % of control
Complex III activity (OCR, % of control) ([3]; 0.3 µM): 92.1 % of control
Complex III activity (OCR, % of control) ([3]; 0.4 µM): 72.1 % of control
Complex III activity (OCR, % of control) ([3]; 0.5 µM): 48.1 % of control
Complex III activity (OCR, % of control) ([3]; 0.75 µM): 16.6 % of control
Complex III activity (OCR, % of control) ([3]; 1 µM): 4.7 % of control
IC50 ([3]; MiaPaCa-2 cells, 24 h treatment, antimycin A-inhibitable OCR, read-out: IC50, complex III-induced oxygen consumption (Complex III activity)): 500 nM

IC50 (MiaPaCa-2 cells [1]; [6]): 197 µM
% changes of IC50 with vs without Mito-PEG5-ATO (MiaPaCa-2 cells [1]; MiaPaCa-2 cells): 38.6%
SMILES: O=C(O)CCCCC(CCSCc1ccccc1)SCc1ccccc1 (stereo not shown) [CPI-613, reference compound]
Inhibition of cell proliferation, alone (MiaPaCa-2 cells [1]; MiaPaCa-2 cells, 200 µM): only moderately inhibited cell proliferation
Inhibition of cell proliferation in combination with Mito-PEG5-ATO (combination index) (MiaPaCa-2 cells [1]; MiaPaCa-2 cells): synergistically inhibited cell proliferation
Intracellular oxidant-induced HE-derived products, in combination with Mito-PEG5-ATO (MiaPaCa-2 cells [4]): modest and additive increase

IC50 (MiaPaCa-2 cells [1]; [6]): 8 µM
% changes of IC50 with vs without Mito-PEG5-ATO (MiaPaCa-2 cells [1]; MiaPaCa-2 cells): 53.8%
SMILES: CCOC(=O)Oc1c(OC)cc(C(=O)O[C@@H]2C[C@@H]3CN4CCc5c([nH]c6cc(OC)ccc56)[C@H]4C[C@@H]3[C@H](C(=O)OC)[C@H]2OC)cc1OC [syrosingopine]
Inhibition of cell proliferation in combination with Mito-PEG5-ATO (combination index) (MiaPaCa-2 cells [1]; MiaPaCa-2 cells): Synergistic inhibition
intracellular ATP level (MiaPaCa-2 cells [5]; syrosingopine 1 µM): 29.40 nmol ATP/mg protein
intracellular ATP level (MiaPaCa-2 cells [5]; syrosingopine 3 µM): 30.31 nmol ATP/mg protein
intracellular ATP level (MiaPaCa-2 cells [5]; syrosingopine 4 µM): 29.92 nmol ATP/mg protein
intracellular ATP level (MiaPaCa-2 cells [5]; syrosingopine 5 µM): 30.42 nmol ATP/mg protein
intracellular ATP level (MiaPaCa-2 cells [5]; syrosingopine 6 µM): 30.16 nmol ATP/mg protein
intracellular ATP level (MiaPaCa-2 cells [5]; syrosingopine 7 µM): 31.07 nmol ATP/mg protein
intracellular ATP level (MiaPaCa-2 cells [5]; syrosingopine 8 µM): 31.92 nmol ATP/mg protein
intracellular ATP level (MiaPaCa-2 cells [5]; syrosingopine 9 µM): 32.59 nmol ATP/mg protein
intracellular ATP level (MiaPaCa-2 cells [5]; syrosingopine 10 µM): 32.30 nmol ATP/mg protein
intracellular ATP level (MiaPaCa-2 cells [5]; syrosingopine 15 µM): 33.63 nmol ATP/mg protein
intracellular ATP level (MiaPaCa-2 cells [5]; syrosingopine 20 µM): 30.18 nmol ATP/mg protein
Intracellular oxidant-induced HE-derived products, in combination with Mito-PEG5-ATO (MiaPaCa-2 cells [4]): modest and additive increase

Reference: PMC8948292, “Combining PEGylated mito-atovaquone with MCT and Krebs cycle redox inhibitors as a potential strategy to abrogate tumor cell proliferation” (Scientific Reports, 2022)
